Measurements from patent publication US20260151403A1, “NEK7 DEGRADERS AND METHODS OF USE THEREOF” (Captor Therapeutics S.A., priority 2022, published 2026).
Where a name gives a salt, the structure may show the parent alone.

Experiments:
NEK7-HiBiT protein = NEK7-HiBiT protein (Homo sapiens, UniProt Q8TDX7); assay: NEK7-HiBiT degradation assay (Nano-Glo HiBiT Lytic Assay) in HEK293 NEK7-HiBiT cells; assay type: cell-based; conditions: 24 h, conc. 0.1, 1 and 10 μM tested, concentration of the table values not stated, mean of 3 technical replicates
Description: HEK293 NEK7-HiBiT cells were generated using CRISPR-Cas9 system. HEK293 cells were transformed with pSpCas9-BB-2A-Puro v2.0 plasmid carrying gRNA targeting the N-terminus of NEK7 and ssODN template containing the HiBiT tag sequence with flanking homology sequences. Neon Transfection System (Thermo Fisher Scientific) was used for electroporation. HEK293 NEK7-HiBiT cells were cultured with DMEM Glutamax (Gibco) supplemented with 10% heat inactivated FBS (Gibco). After transfection the culture medium was changed to DMEM Glutamax with 10% heat-inactivated FBS and 1% Penicillin-Streptomycin (Biowest) supplemented with Puromycin (2 μg/ml; Invivogen) for clonal selection. In order to isolate single cell clones for further validation and analysis, limiting dilution cloning in 96-well plates was performed. When the single clones reached confluency, HiBiT Lytic Assay (Promega) was performed in order to identify HiBiT positive clones. The clone selected for further studies was verified and validated using genotyping and HiBiT Blotting (Promega).
Selected clone of HEK293 NEK7-HiBiT cells was maintained in the DMEM-Glutamax medium supplemented with 10% of heat-inactivated FBS (Gibco) and 1% of Penicillin-Streptomycin Solution 100x (Biowest) at 37° C., 5% CO2 and subcultured every 2-3 days.
For Nano-Glo HiBiT Lytic Assay HEK293 NEK7-HiBiT cells were seeded at the density 2×10^3 cells in triplicates in the 40 μL of growth medium per single well on 384 well plate (Greiner Bio-One). Compounds or DMSO were added to treatment plates using Echo555 Liquid Handler and incubated at 37° C., 5% CO2 for 24 hours. After incubation 40 μL of Nano-Glo HiBiT Lytic Reagent (prepared according to the manufacturer protocol) were added to 40 μL of the cell culture medium present in each well. The plate content was briefly mixed (460 rpm) on an orbital shaker to ensure cell lysis. The plate was left at RT protected from light for another 10 min to stabilize the luminescent signal. The luminescence signal was measured using CLARIOstar Multimode Plate Reader. Focus and gain were adjusted to DMSO treated cells. The results were calculated as the NEK7-HiBiT % relative to the DMSO control of 3 technical replicates relative to the DMSO control.
HEK293 NEK7-HiBiT cells were treated with the compounds (conc. 0.1, 1 and 10 μM) or DMSO for 24 h. After incubation with compounds NEK7-HiBiT degradation was measured as a luminescence signal using CLARIOstar Multimode Plate reader.
Additionally, compounds reducing NEK7-HiBiT protein level by >=50% at 0.1 μM, were also identified.

[1] = molecular target: T1, [NEK7]-[compound of formula (I)]-[CRBN/DDB1] complex (Homo sapiens, UniProt Q8TDX7+Q96SW2); assay: AlphaLISA dose response ternary complex formation assay; assay type: binding; conditions: 1 μM compound, normalized to maximum signal of Compound 2 (positive control) and DMSO background; for activation at 1 µM: read-out: Normalized AlphaLISA ternary complex average signal at 1 μM molecule
Description: The effect of the molecular glue compounds of the invention on the formation of a ternary complex composed of [NEK7]-[compound of formula (I)]-[CRBN/DDB1] was investigated with two methods: AlphaLISA dose response assay or HTRF ternary complex assay.
Two types of protein solution were prepared: • 200 nM biotinylated NEK7, 40 μg/ml AlphaScreen Streptavidin-coated Donor Beads in HBS (10 mM HEPES, 150 mM NaCL, pH 7.4) buffer with 0.1% Tween-20 and 1 mM DTT, • 200 nM 6×His-CRBN/Strep-DDB1, 40 μg/ml AlphaLISA Anti-6×His Acceptor beads in HBS buffer with 0.1% Tween-20 and 1 mM DTT.
The prepared solutions were incubated at room temperature for 30 min and then the solution containing the donor beads was mixed with the solution containing the acceptor beads.
The tested compounds were dispensed onto a white 384-well AlphaPlate 384 SW. DMSO was backfilled to all wells, resulting in a final DMSO content of 2%. Wells containing only DMSO served as background. Next, 10 μl of solution with donor and acceptor beads was added to the wells.
The plate was sealed with transparent film and shaken using a VibroTurbulator for 60 sec at room temperature, level 3. The plate was then spun down shortly (10 s, 1000 rcf, room temperature) and incubated at 25° C. for 30 min.
The read-out was performed with PerkinElmer Enspire Multimode Plate Reader (method for AlphaLISA 384-well low volume, Filterset: λexc=680 nm, λem=615 nm).
The results were analyzed as follows: • 1) an average of luminescence for background signal was calculated and used as a negative control; • 2) average of the maximum measured luminescence for Compound 2 was calculated and used as an internal positive control; • 3) raw luminescence values were normalized against positive and negative controls; • 4) Normalized responses to Compound 2 were determined.

[2] = molecular target: T1, [NEK7]-[compound of formula (I)]-[CRBN/DDB1] complex; assay: HTRF ternary complex assay; assay type: binding; conditions: dose-response, 180 min at 25° C.; for EC50: read-out: HTRF ternary complex Average pEC50 by molecule (converted)
Description: The effect of the molecular glue compounds of the invention on the formation of a ternary complex composed of [NEK7]-[compound of formula (I)]-[CRBN/DDB1] was investigated.
Mix solution of proteins and reagents was prepared: • 24 nM NEK7, 52.8 nM 6×His-CRBN/Strep-DDB1, 3 nM of Streptavidin-Eu cryptate […] and 6.67 nM of Anti-6×his-d2 […] was prepared in PPI Europium detection buffer (Cisbio) with 1 mM DTT.
The tested compounds in dose-response were dispensed onto a white 384-well low volume plate (Greiner, 784075). DMSO was backfilled to all wells, resulting in a final DMSO content of 0.5%. Wells containing only DMSO served as background.
The plate was sealed with transparent film and shaken using a VibroTurbulator for 60 sec at level 3.
The plate was then spun down shortly (10 s, 1000 rcf) and incubated at 25° C. for 180 min.
The read-out was performed with plate reader (Pherastar, BMG Labtech) in time resolved fluorescence mode. Filterset: TR 337 665 620.
The results were analyzed as follows: • 1) an average of fluorescence for background signal was calculated and used as a negative control; • 2) raw fluorescence values for tested compounds were normalized against negative controls; • 3) saturation curve was fitted to specific binding with Hill slope model; • 4) EC50 and pEC50 values were determined.

T1 sequence (Q8TDX7 whole entry): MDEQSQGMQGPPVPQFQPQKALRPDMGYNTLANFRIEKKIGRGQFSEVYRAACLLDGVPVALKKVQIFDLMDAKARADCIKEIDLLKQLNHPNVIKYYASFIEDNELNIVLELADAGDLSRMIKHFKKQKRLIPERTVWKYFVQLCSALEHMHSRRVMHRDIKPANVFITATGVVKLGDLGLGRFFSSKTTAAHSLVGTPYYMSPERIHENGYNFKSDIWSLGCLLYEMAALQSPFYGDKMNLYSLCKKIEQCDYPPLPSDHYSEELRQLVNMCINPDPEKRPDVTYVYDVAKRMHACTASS
T1 sequence (Q96SW2 whole entry): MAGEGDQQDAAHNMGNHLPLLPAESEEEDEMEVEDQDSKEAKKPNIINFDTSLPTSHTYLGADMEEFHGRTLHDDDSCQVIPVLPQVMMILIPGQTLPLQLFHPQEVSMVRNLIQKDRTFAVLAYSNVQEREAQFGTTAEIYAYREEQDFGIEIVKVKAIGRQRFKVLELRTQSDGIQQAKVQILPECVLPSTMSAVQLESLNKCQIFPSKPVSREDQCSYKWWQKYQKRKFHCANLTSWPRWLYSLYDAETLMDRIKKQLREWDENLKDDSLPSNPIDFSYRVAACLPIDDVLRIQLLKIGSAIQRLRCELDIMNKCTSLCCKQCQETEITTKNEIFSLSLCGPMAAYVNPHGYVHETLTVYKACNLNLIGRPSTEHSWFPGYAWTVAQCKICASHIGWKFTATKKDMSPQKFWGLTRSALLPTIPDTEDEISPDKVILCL
T1 sequence (Q16531 whole entry partner): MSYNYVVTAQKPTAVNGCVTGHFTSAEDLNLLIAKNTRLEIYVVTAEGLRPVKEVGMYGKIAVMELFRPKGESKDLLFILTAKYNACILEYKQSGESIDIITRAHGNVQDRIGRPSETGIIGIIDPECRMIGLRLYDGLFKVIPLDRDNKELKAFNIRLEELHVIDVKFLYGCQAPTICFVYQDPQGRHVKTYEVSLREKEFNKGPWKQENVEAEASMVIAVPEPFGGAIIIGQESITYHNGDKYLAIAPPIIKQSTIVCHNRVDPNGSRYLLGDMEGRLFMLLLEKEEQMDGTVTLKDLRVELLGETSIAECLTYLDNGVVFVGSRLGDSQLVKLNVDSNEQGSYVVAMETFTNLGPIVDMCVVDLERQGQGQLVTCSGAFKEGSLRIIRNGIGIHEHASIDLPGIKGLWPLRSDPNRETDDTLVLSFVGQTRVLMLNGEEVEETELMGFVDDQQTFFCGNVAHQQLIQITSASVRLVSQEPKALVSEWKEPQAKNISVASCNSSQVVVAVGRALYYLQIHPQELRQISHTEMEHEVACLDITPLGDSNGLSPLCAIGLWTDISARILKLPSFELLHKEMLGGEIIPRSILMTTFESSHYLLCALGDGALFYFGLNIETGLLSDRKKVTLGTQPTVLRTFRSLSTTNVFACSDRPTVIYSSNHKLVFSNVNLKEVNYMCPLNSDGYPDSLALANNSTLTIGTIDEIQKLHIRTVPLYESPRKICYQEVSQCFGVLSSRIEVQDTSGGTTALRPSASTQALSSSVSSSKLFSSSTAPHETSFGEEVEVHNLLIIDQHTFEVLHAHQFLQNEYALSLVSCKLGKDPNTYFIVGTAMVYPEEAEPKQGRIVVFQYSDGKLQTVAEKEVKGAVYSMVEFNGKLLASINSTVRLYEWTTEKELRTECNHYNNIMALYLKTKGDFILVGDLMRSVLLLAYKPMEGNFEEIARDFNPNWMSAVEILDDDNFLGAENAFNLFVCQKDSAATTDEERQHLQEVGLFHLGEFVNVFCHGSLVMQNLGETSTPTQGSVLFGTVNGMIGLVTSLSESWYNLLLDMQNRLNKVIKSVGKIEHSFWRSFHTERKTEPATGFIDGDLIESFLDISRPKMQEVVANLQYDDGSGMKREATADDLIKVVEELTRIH
Chain of NEK7-HiBiT protein (Q8TDX7 whole entry): as the sequence (Q8TDX7 whole entry) above
Chain of NEK7-HiBiT protein (Q96SW2 whole entry, further chain): as the sequence (Q96SW2 whole entry) above
Chain of NEK7-HiBiT protein (Q16531 whole entry partner): as the sequence (Q16531 whole entry partner) above

Levels of NEK7-HiBiT Protein (as a % of DMSO control) (NEK7-HiBiT protein) | Normalized AlphaLISA ternary complex average signal at 1 μM molecule [1] | EC50 [2] | activation at 1 µM [1] | Molecule | HTRF ternary complex Average pEC50 by molecule [2]
A (Levels of NEK7-HiBiT Protein ≤ 25%) | A (Normalized activity > 80%) | 0.1 to 0.316 µM | – | O=C1CCC(N2Cc3cc(C4CCC(c5ccccc5)CO4)ccc3C2=O)C(=O)N1 (single isomer, unassigned) [74 Isomer 2, 3-(1-oxo-5-(5-phenyltetrahydro-2H-pyran-2-yl)isoindolin-2-yl)piperidine-2,6-dione] | –
D (Levels of NEK7-HiBiT Protein ≥ 75%) | – | > 3.16 µM | < 10% | O=C1CCC(N2Cc3cc(C4CCCC(=O)N4)ccc3C2=O)C(=O)N1 (stereo not drawn) [Compound 42, 3-(1-oxo-5-(6-oxopiperidin-2-yl)isoindolin-2-yl)piperidine-2,6-dione] | –
A (Levels of NEK7-HiBiT Protein ≤ 25%) | A (Normalized activity > 80%) | 0.316 to 1 µM | – | O=C1CCC(N2Cc3cc(C4CCC(c5ccccc5)CN4)ccc3C2=O)C(=O)N1 (single isomer, unassigned) [32 Isomer 2, 3-(1-oxo-5-(5-phenylpiperidin-2-yl)isoindolin-2-yl)piperidine-2,6-dione] | –
D (Levels of NEK7-HiBiT Protein ≥ 75%) | – | > 3.16 µM | < 10% | O=C1CCC(N2C(=O)c3cccc4c(C5CCCCN5)ccc2c34)C(=O)N1 (stereo not drawn) [Compound 59, 3-(2-oxo-6-(piperidin-2-yl)benzo[cd]indol-1 (2H)-yl)piperidine-2,6-dione] | –
D (Levels of NEK7-HiBiT Protein ≥ 75%) | – | > 3.16 µM | < 10% | Cc1cc2c(cc1C1CCCCN1)CN(C1CCC(=O)NC1=O)C2=O (stereo not drawn) [Compound 20, 3-(6-methyl-1-oxo-5-(piperidin-2-yl)isoindolin-2-yl)piperidine-2,6-dione] | –

Further lines, the molecule ahead of its results:

Molecule | Levels of NEK7-HiBiT Protein (as a % of DMSO control) (NEK7-HiBiT protein) | Normalized AlphaLISA ternary complex average signal at 1 μM molecule [1] | EC50 [2] | activation at 1 µM [1] | HTRF ternary complex Average pEC50 by molecule [2]
CC(C)C1CCC(c2ccc3c(c2)CN(C2CCC(=O)NC2=O)C3=O)NC1 (single isomer, unassigned) [55 Isomer 1, 3-(5-(5-isopropylpiperidin-2-yl)-1-oxoisoindolin-2-yl)piperidine-2,6-dione] | C (Levels of NEK7-HiBiT Protein > 50% and <75%) | B (Normalized activity > 20% and <80%) | 0.316 to 1 µM | – | –
O=C1CCC(N2Cc3cc(-c4cc5ccccc5cn4)ccc3C2=O)C(=O)N1 (stereo not drawn) [6(2), 3-(5-(isoquinolin-3-yl)-1-oxoisoindolin-2-yl)piperidine-2,6-dione] | B (Levels of NEK7-HiBiT Protein > 25% and ≤50%) | – | 0.1 to 0.316 µM | > 80% | –
O=C1CCC(N2Cc3cc(-c4ccc5ccccc5n4)ccc3C2=O)C(=O)N1 (stereo not drawn) [5(2), 3-(1-oxo-5-(quinolin-2-yl)isoindolin-2-yl)piperidine-2,6-dione] | B (Levels of NEK7-HiBiT Protein > 25% and ≤50%) | – | 0.1 to 0.316 µM | > 80% | –
O=C1CCC(N2C(=O)c3ccc(C4CCCCN4)c4cccc2c34)C(=O)N1 (stereo not drawn) [Compound 66, 3-(2-oxo-5-(piperidin-2-yl)benzo[cd]indol-1 (2H)-yl)piperidine-2,6-dione trifluoroacetate] | B (Levels of NEK7-HiBiT Protein > 25% and ≤50%) | – | 0.1 to 0.316 µM | 10 to 20% | –
O=C1CCC(N2Cc3cc(C4CCC(c5ccccc5)CN4)ccc3C2=O)C(=O)N1 (single isomer, unassigned) [32 Isomer 1, 3-(1-oxo-5-(5-phenylpiperidin-2-yl)isoindolin-2-yl)piperidine-2,6-dione] | D (Levels of NEK7-HiBiT Protein ≥ 75%) | C (Normalized activity > 10% and <20%) | > 3.16 µM | – | –
3-(5-((2R,6S)-6-butyltetrahydro-2H-pyran-2-yl)-1-oxoisoindolin-2-yl)piperidine-2,6-dione and 3-(5-((2S,6R)-6-butyltetrahydro-2H-pyran-2-yl)-1-oxoisoindolin-2-yl)piperidine-2,6-dione [69 Isomer 1] | A (Levels of NEK7-HiBiT Protein ≤ 25%) | A (Normalized activity > 80%) | – | – | +++ (6.5 > pEC50 > 6.0)
CC(C)C1CCC(c2ccc3c(c2)CN(C2CCC(=O)NC2=O)C3=O)NC1 (single isomer, unassigned) [55 Isomer 2, 3-(5-(5-isopropylpiperidin-2-yl)-1-oxoisoindolin-2-yl)piperidine-2,6-dione] | B (Levels of NEK7-HiBiT Protein > 25% and ≤50%) | A (Normalized activity > 80%) | – | – | +++ (6.5 > pEC50 > 6.0)
O=C1CCC(N2Cc3cc(C4CCCC(C(F)(F)F)N4)ccc3C2=O)C(=O)N1 (stereo not drawn) [Compound 60, 3-(1-oxo-5-(6-(trifluoromethyl)piperidin-2-yl)isoindolin-2-yl)piperidine-2,6-dione] | C (Levels of NEK7-HiBiT Protein > 50% and <75%) | – | 0.316 to 1 µM | < 10% | –
O=C1CCC(N2Cc3cc(-c4ccccn4)sc3C2=O)C(=O)N1 (stereo not drawn) [30(2), 3-(6-oxo-2-(pyridin-2-yl)-4,6-dihydro-5H-thieno[2,3-c]pyrrol-5-yl)piperidine-2,6-dione] | D (Levels of NEK7-HiBiT Protein ≥ 75%) | – | > 3.16 µM | < 10% | –
COc1ccc(-c2ccc3c(c2)CN(C2CCC(=O)NC2=O)C3=O)nc1 (stereo not drawn) [25(2), 3-(5-(5-methoxypyridin-2-yl)-1-oxoisoindolin-2-yl)piperidine-2,6-dione] | A (Levels of NEK7-HiBiT Protein ≤ 25%) | – | 0.1 to 0.316 µM | > 80% | –
